According to patent publication US20160146788A1, “METHOD FOR SCREENING DRUGS FOR TREATING/PREVENTING MYELODYSPLASTIC SYNDROME, ETC” (KYOTO UNIVERSITY, priority 2013, published 2016):

Test system: hematopoietic progenitor cells induced from MDS-iPS cells
Assay: Colony formation assay of hematopoietic progenitor cells with p38 inhibitor added
Type: cell-based, human
Conditions: 10 μM SB203580 in methylcellulose medium, HPC from MDS-iPSC and Normal iPSC derived from KM5 and KM16, colonies counted after 14 or 15 days, FIG. 19
Procedure: Using a 35 mm culture dish, 2500 cells from the cells of CD43^+CD34^+CD38^− fraction induced to differentiate from iPS cells (abnormal MDS-iPSCs (NonT-iPS) and Normal iPSCs (T-iPS)) and extracted by flow cytometer were seeded in 2 ml of a methylcellulose medium containing SCF, G-CSF, GM-CSF, IL-3, IL-6 and EPO (MethoCult H4435) according to the method of Example 2. After 15 days, the number of the colonies was counted under a microscope. After Cytospin, Wright's staining was performed, and the colony type was identified by microscopic observation.
To study whether the decreased colony-forming ability of hematopoietic progenitor cells induced from MDS-iPS cells is recovered by the effect of p38 inhibitor, colony formation assay was performed by a method similar to Example 3 except that a p38 inhibitor was added. In brief, using a 35 mm culture dish, 2500 cells from the cells of CD43+CD34+CD38-fraction induced to differentiate from iPS cells (MDS-iPSCs (NonT-iPS)) and Normal iPSCs (T-iPS)) and extracted by flow cytometer were seeded in 1.1 ml of a methylcellulose medium containing SCF, G-CSF, GM-CSF, IL-3, IL-6, EPO and 10 μM SB203580 (p38 inhibitor) according to the method of Example 2. After 14 or 15 days, the number of colonies was counted under a microscope. Furthermore, after Cytospin, Wright's staining was performed, and the colony type was identified by microscopic observation.

Structure (SMILES): C[S+]([O-])c1ccc(-c2nc(-c3ccncc3)c(-c3ccc(F)cc3)[nH]2)cc1 (centres unmarked) [SB203580]
- colony-forming ability (number of colonies): colony-forming ability-improving effect
- colony-forming ability (number of colonies) (listed as p38 inhibitor): improving effect on the colony-forming ability
